The test system of the test is FBXW7. In words: Ratiometric EGFP/DsRed protein degradation assay with degron probes. The class given is cell-based, human. The conditions noted are these: putative degron motif in EGFP-fused probe with AAKG2 MAPK docking motif; HEK293T, 48 h after transfection, EGFP/DsRed ratio with and without FBXW7 plasmid; search cycles 1-4. The text has this: In order to be able to test putative phosphodegron motifs, a ratiometric protein level monitoring method was adapted to monitor MAPK controlled FBXW7 mediated protein degradation. Briefly, intact DsRed and an EGFP-chimera were expressed in HEK293T cells in equal amounts from an expression plasmid, giving an EGFP/DsRed fluorescence ratio close to one under non-degrading conditions. EGFP was fused to a probe comprised of a putative degron sequence and a known MAPK binding docking motif. EGFP signal is expected to diminish faster than DsRed in cells with more FBXW7 if the probe responded to degradation.
We started out from an intentionally general consensus motif of FBXW7 degrons, inspired by the liberal [TS]P..[TS]P pattern defined for yeast Cdc4 substrates, and scanned the human disordered part of the proteome using SliMSearch4 (the disorder score cut-off was 0.4 and flank length was 5). In all, 22 motifs from this list were subjectively chosen and tested in the ratiometric degradation assay giving only 5 positives (see Supplementary Table S1). Based on the results of this first round, by taking information both from the identified positives and negatives, the consensus motif definition was narrowed to requiring a proline at P + 2, but motifs were allowed to have a phospho-mimicking residue (D or E) at P + 4 because it had been formerly reported that this second phosphorylatable residue may be replaced by aspartate or glutamate. […] In the third round, hydrophobic amino acids were more strictly required at positions −1/−2 and P − 1/2/3 positions were further narrowed and P + 4 position was relaxed based on the identified negatives, which gave a higher hit rate (4 out of 6). This third round gave functional motifs at a good rate, but the used motif definition was very restrictive compared to other known motifs. Finally, in the fourth round, we gave up using an optimal consensus and established the positional relaxation model. […] Hits on this final, most predictive list are presented in Supplementary Table S2. All entries were filtered for motif locations by UniProt annotations, discarding all enzyme-inaccessible (e.g., extracellular) instances. Motifs that had any overlapping PFAM domain indicated were manually assessed using the AlphaFold EBI website. Out of these, only motifs that were highly accessible and located outside of confidently predicted folded domains were kept. We also added kinase consensus compatibility to every motif and the number of experiments where phosphorylation could be detected from PhosphoSitePlus.
The chimera degron module was ordered from IDT as gene Block (gBlock). It consisted of a coiled coil dimerization motif (GCN4: EELLSKNYHLENEVARLKK) to increase sensitivity by allowing multivalent binding, a MAPK binding docking motif (AAKG2: KKNASQKRRSLRVHIPDL), and the CycECO degron motif. The motifs were separated by Gly-Ser-Asn linkers and the gBlock was designed so that the motifs could be easily changed by using unique sets of restriction endonucleases. The gBlock was sub-cloned into the Gateway pENTR4 entry plasmid (Thermo Fisher, Waltham, MA, USA) using restriction enzymes (SalI and NotI). The pENTR4-chimera and the destination plasmid (MSCV-CMV-DsRed-IRES-EGFP-DEST from Addgene; 41941), [28]) were subjected to gateway cloning using LR clonase II enzyme (Invitrogen) to obtain the first DsRed-EGFP-chimera DNA construct containing the cycECO degron. Oligonucleotides corresponding to different degron sequences and docking motifs were ligated into the DsRed-EGFP-chimera DNA construct. The list of all the oligonucleotides used for cloning is provided in Supplementary Table S3. pcDNA3-FLAG-FBXW7α was a kind gift from Michael Pagano (New York University). The FBXW7 arginine mutant (Arg mutant: R465C; R479Q; R505L) was created using two-step PCR and cloned into the pcDNA3-FLAG plasmid. […]

In the case of “QGQKVGSLTPPSSPKTQRA [AAK1, putative FBXW7 degron motif tested as EGFP-fused degradation probe]”, the Outcome entry is “Negative”.

Turning to “KTGEQTPPHEHICLRDELP [JIP1, putative FBXW7 degron motif tested as EGFP-fused degradation probe]”, the Outcome result was “Negative”.

For “EQPSHTPPQTPTPPSTPPLGKQ [ARHGAP17, putative FBXW7 degron motif tested as EGFP-fused degradation probe]”, the Outcome entry was “Negative”.

Take “DRNVIPDTPPSTPLVPSR [AKAP11-1st, putative FBXW7 degron motif tested as EGFP-fused degradation probe]”: the Outcome result was “Positive (tested positive, where +FBXW7/control protein level ratio was lower than 1)”.

As for “STKRKPRVSPPASPTLEVE [SH3RF1, putative FBXW7 degron motif tested as EGFP-fused degradation probe]”, the Outcome result is listed as “Negative”.

With “TANLPPSPPPSPASEQT [MAP2, putative FBXW7 degron motif tested as EGFP-fused degradation probe]”, the Outcome result is given as “Positive (tested positive, where +FBXW7/control protein level ratio was lower than 1)”.

For “TTVTPPGTPPMR [KSR2-b, putative FBXW7 degron motif tested as EGFP-fused degradation probe]”, the Outcome result was “Negative”.

For “LGPVHPTPPPSSPQEP [KMT2D-a, putative FBXW7 degron motif tested as EGFP-fused degradation probe]”, the Outcome entry is “Negative”.

In the case of “TEPRSSPSPPPSPTEPE [CUX2, putative FBXW7 degron motif tested as EGFP-fused degradation probe]”, the Outcome result is listed as “Negative”.

“MVQRLGLISPPASQVSTA [GLIS3, putative FBXW7 degron motif tested as EGFP-fused degradation probe]”: the Outcome result was “Negative”.

As to “NYGARPPPTPPASPPPSV [KMT2E, putative FBXW7 degron motif tested as EGFP-fused degradation probe]”, the Outcome entry was “Positive (tested positive, where +FBXW7/control protein level ratio was lower than 1)”.

On to “SDLDKTPPPSPPPEED [CHD7, putative FBXW7 degron motif tested as EGFP-fused degradation probe]”, for which the Outcome entry is given as “Negative”.

As for “PLGPPATPPGSPPCSLL [PKMYT1, putative FBXW7 degron motif tested as EGFP-fused degradation probe]”, the Outcome result was “Negative”.

As for “IHQAGGSPPASSTSSS [RAPTOR, putative FBXW7 degron motif tested as EGFP-fused degradation probe]”, the Outcome entry is on record as “Negative”.

In the case of “GQAATPETPQPSPPGGSGS [HNF4, putative FBXW7 degron motif tested as EGFP-fused degradation probe]”, the Outcome entry is “Negative”.

As to “RPALPATPPATPPAASP [CDT1, putative FBXW7 degron motif tested as EGFP-fused degradation probe]”, the Outcome result is recorded as “Positive (tested positive, where +FBXW7/control protein level ratio was lower than 1)”.

Take “KQFLISPPASPPVGWKQV [RCAN1, putative FBXW7 degron motif tested as EGFP-fused degradation probe]”: the Outcome entry is on record as “Negative”.

Take “AVVRTPPKSPSSAK [Tau, putative FBXW7 degron motif tested as EGFP-fused degradation probe]”: the Outcome result was “Negative”.

Take “VKRTLPSPPPEEAHLP [BSN, putative FBXW7 degron motif tested as EGFP-fused degradation probe]”: the Outcome result is listed as “Negative”.

Turning to “ELDLMPYTPPQSTPKSA [PBRM1, putative FBXW7 degron motif tested as EGFP-fused degradation probe]”, the Outcome entry was “Negative”.

Turning to “AKEFAPATPPSTPHNSSV [AKAP11-2nd, putative FBXW7 degron motif tested as EGFP-fused degradation probe]”, the Outcome result is reported as “Negative”.

In the case of “GSDGASPPASPSIIPR [MAP3K10, putative FBXW7 degron motif tested as EGFP-fused degradation probe]”, the Outcome result is listed as “Negative”.

“SAVQTPPSPPVSPRVLS [PCARE, putative FBXW7 degron motif tested as EGFP-fused degradation probe]”: the Outcome result is “Negative”.

“ASPTPPSPPPPPSPPASPSLPP [PP1R37, putative FBXW7 degron motif tested as EGFP-fused degradation probe]”: the Outcome result was “Negative”.

As for “KMSQPGSPSPKTPTPSTPGDTQ [CHD4, putative FBXW7 degron motif tested as EGFP-fused degradation probe]”, the Outcome result is recorded as “Negative”.

For the sequence “SRNHSPSPPVTPTGAA [NHSL1, putative FBXW7 degron motif tested as EGFP-fused degradation probe]”, the Outcome result is “Negative”.

As to “PPEESPLSPPPEASRLS [KMT2D-b, putative FBXW7 degron motif tested as EGFP-fused degradation probe]”, the Outcome entry is on record as “Negative”.

Regarding “TCPNSPSTPPSTPSPRV [SOS2, putative FBXW7 degron motif tested as EGFP-fused degradation probe]”, the Outcome result is “Negative”.

The values above are taken from publication PMC8955265, “Systematic Discovery of FBXW7-Binding Phosphodegrons Highlights Mitogen-Activated Protein Kinases as Important Regulators of Intracellular Protein Levels” (International Journal of Molecular Sciences, 2022).
